Measurements taken from PMC3793924, “Targeting Androgen Receptor/Src Complex Impairs the Aggressive Phenotype of Human Fibrosarcoma Cells” (PLoS ONE, 2013).

Columns and labels:
[1] = system: KP-2 cells; test: BrdU incorporation in KP-2 cells; format: cell-based, human; conditions: quiescent KP-2 cells, EGF 100 ng/ml, 18 h; for Inhibition of EGF-induced BrdU incorporation: Casodex 10 μM, S1 and Ss peptides 10 nM
Experimental: Quiescent human colon cancer-derived HCT116 cells were used. In A, cells on coverslips were left un-stimulated or stimulated for 18 h with the indicated compounds. […] After in vivo pulse with BrdU (100 μM), BrdU incorporation was analyzed by IF and expressed as % of total cells. Several independent experiments were performed in duplicate and the results were derived from at least 400 scored cells for each coverslip. Mean and SEM are shown. n represents the number of experiments. In B, the cells were left untreated or treated for 6 h with the indicated compounds. […] Cells were allowed to migrate in collagen-pre-coated Trans-well filters. Migrated cells were stained and counted as reported in Methods. Results were derived from several independent experiments, each performed in duplicate. Data are expressed as relative increase. Mean and SEM are shown. n represents the number of experiments. Quiescent human pancreatic cancer-derived KP-2 cells were used. In C, cells on coverslips were left unstimulated or stimulated for 18 h with the indicated compounds. […] After in vivo pulse with BrdU (100 μM), BrdU incorporation was analyzed by IF and expressed as % of total cells. Several independent experiments were performed in duplicate and the results were derived from at least 400 scored cells for each coverslip. Mean and SEM are shown. n represents the number of experiments. In D, the cells were left untreated or treated for 6 h with the indicated compounds. […] Cells were allowed to migrate in collagen-pre-coated Trans-well filters. Migrated cells were stained and counted as reported in Methods. Results were derived from several independent experiments, each performed in duplicate. Data are expressed as relative increase. Mean and SEM are shown. n represents the number of experiments. […] After in vivo labeling with 100 μM BrdU (Sigma), DNA synthesis was analyzed by immunofluorescence, using diluted (1:50 in PBS) mouse monoclonal anti-BrdU antibody (clone BU-1, from GE Healthcare).

[2] = biological target: T1, EGFR/AR/Src complex (Homo sapiens, UniProt P12931); test: Co-immunoprecipitation of EGFR/AR/Src complex in HT1080 cells; format: cell-based; conditions: quiescent HT1080 cells; for Effect on EGF-induced EGFR/AR/Src complex assembly: EGF 100 ng/ml 10 min, S1 and Ss peptides 1 nM, anti-EGFR immunoprecipitation
T1 construct: endogenous in cells; host or cells: HT1080 human fibrosarcoma cells
Experimental: Quiescent HT1080 cells were used. […] Casodex (at 10 μM) was used for comparison with the S1 peptide. Upper section in A, Western blot of HT1080 cell lysates with anti-EGFR antibody. […] In B, lysates were immune-precipitated with the anti-Src MAb and Src activity in immune complexes was assayed using acidified enolase, as a substrate. In C, cells on coverslips were left untreated or treated for 18 h with the indicated compounds. After in vivo pulse with BrdU (100 μM), BrdU incorporation was analyzed by IF and expressed as % of total nuclei. Several independent experiments were performed in duplicate and the results were obtained from at least 500 scored cells for each coverslip. Mean and SEM are shown. n represents the number of experiments.
Lysates (at 2 mg/ml protein concentration) were prepared as described. […] The Src tyrosine kinase activity in immunocomplexes was assayed using enolase (Sigma) as a substrate.

[3] = system: LNCaP cells; test: BrdU incorporation in LNCaP cells; format: cell-based, human; conditions: quiescent LNCaP cells, EGF 100 ng/ml, 18 h; for Inhibition of EGF-induced BrdU incorporation: Casodex 10 μM, S1 and Ss peptides 10 nM
Experimental: Quiescent human prostate cancer-derived LNCaP cells were used. In A, quiescent cells on coverslips were left unstimulated or stimulated for 18 h with the indicated compounds. […] After in vivo pulse with BrdU (100 μM), BrdU incorporation was analyzed by IF and expressed as % of total cells. Several independent experiments were performed in duplicate and the results were derived from at least 600 scored cells for each coverslip. Mean and SEM are shown. n represents the number of experiments. In B, the cells were left untreated or treated for 6 h with the indicated compounds. […] Cells were allowed to migrate in collagen pre-coated Trans-well filters. Migrated cells were stained and counted as reported in Methods. Results were derived from several independent experiments, each performed in duplicate. Data are expressed as relative increase. Mean and SEM are shown. n represents the number of experiments. Quiescent human breast cancer-derived MCF-7 cells were used. In C, quiescent cells on coverslips were left un-stimulated or stimulated for 18 h with the indicated compounds. […] After in vivo pulse with BrdU (100 μM), BrdU incorporation was analyzed by IF and expressed as % of total cells. Several independent experiments were performed in duplicate and the results were derived from at least 500 scored cells for each coverslip. Mean and SEM are shown. n represents the number of experiments. In D, the cells were left untreated or treated for 6 h with the indicated compounds. […] Cells were allowed to migrate in collagen-pre-coated Trans-well filters. Migrated cells were stained and counted as reported in Methods. Results were derived from several independent experiments, each performed in duplicate. Data are expressed as relative increase. Mean and SEM are shown. n represents the number of experiments.

[4] = system: HCT116 cells; test: Trans-well migration of HCT116 cells; format: cell-based, human; conditions: quiescent HCT116 cells, EGF 100 ng/ml, 6 h; for Inhibition of EGF-induced motility (Trans-well): Casodex 10 μM, S1 and Ss peptides 10 nM
[5] = system: NIH3T3 cells; test: BrdU incorporation in NIH3T3 fibroblasts; format: cell-based, mouse; conditions: 18 h, EGF 100 ng/ml; for Inhibition of EGF-induced BrdU incorporation: quiescent NIH3T3 fibroblasts, Casodex 10 μM, S1 and Ss peptides 1 nM
Experimental: NIH3T3 cells were used. In A, cells were transfected with 3416 or 3424 ARE-Luc constructs with or without hAR-expressing plasmid and then made quiescent as reported in Methods. Cells were left unstimulated or stimulated for 18 h with 10 nM R1881. Luciferase activity was assayed, normalized using beta-gal as an internal control, and expressed as fold induction. Three independent experiments were performed in triplicate. Means and SEM are shown; n represents the number of experiments. […] After in vivo labeling with BrdU (100 μM), BrdU incorporation was analyzed by IF and expressed as % of total cells. Several independent experiments were performed in duplicate and data derived from at least 700 scored cells for each coverslip. Mean and SEM are shown. n represents the number of experiments. […] Quiescent NIH3T3 fibroblasts were used. In C, cells on coverslips were left unstimulated or stimulated for 18 h with the indicated compounds. […] After in vivo pulse with BrdU (100 μM), BrdU incorporation was analyzed by IF and expressed as % of total cells. Several independent experiments were performed in duplicate and the results were derived from at least 500 scored cells for each coverslip. Mean and SEM are shown. n represents the number of experiments. […] The Western blot of MCF-7 cell lysate with the anti-tubulin or the anti-EGFR antibody is shown for comparison. In D, cells were left untreated or treated for 6 h with the indicated compounds. […] Cells were allowed to migrate in collagen pre-coated Trans-well filters. Migrated cells were stained and counted as reported in Methods. Results were derived from several independent experiments, each performed in duplicate. Data are expressed as relative increase. Mean and SEM are shown. n represents the number of experiments. […] (PPTX) Click here for additional data file.

[6] = system: HT1080 cells; test: Trans-well migration/invasiveness of HT1080 cells; format: cell-based, human; conditions: quiescent HT1080 cells, collagen-coated Trans-well, 6 h, EGF 100 ng/ml; Casodex 10 μM; S1 and Ss peptides 10 nM

With “EGF: epidermal growth factor (Roche), used as stimulus at 100 ng/ml” the “BrdU incorporation upon stimulation” value [1] was “significantly increases BrdU incorporation”, the “Association of EGF-R with AR and Src upon stimulation” value ([2]; EGF 100 ng/ml, 10 min) was “induces association of EGF-R with AR and Src” and the “BrdU incorporation upon stimulation” value [3] was “robustly incorporate BrdU”. For the same molecule, the Motility upon stimulation [4] was “robustly increases” and the “BrdU incorporation (DNA synthesis) upon stimulation with the compound alone” value ([5]; quiescent NIH3T3 cells, R1881 10 nM) was “significantly increases BrdU incorporation”.
Ac-PPPHPHARIK-NH2 [S1 peptide] was tested, and the “Inhibition of EGF-induced BrdU incorporation” value [1] was “inhibit both DNA synthesis and motility”, the “Effect on EGF-induced EGFR/AR/Src complex assembly” value [2] was “abolishes AR/Src association with EGF-R” and the “Inhibition of EGF-induced BrdU incorporation” value [3] was “abolishes the mitogenic response elicited by EGF”. For the same molecule, the “Inhibition of EGF-induced invasiveness (trans-migration)” value (from here on “Inhibition of EGF-induced invasiveness”) [6] was “inhibited to a similar extent”, the “Inhibition of EGF-induced motility (Trans-well)” value (shortened to “Inhibition … (Trans-well)”) [4] was “similarly inhibit these EGF-elicited responses” and the “Inhibition of EGF-induced BrdU incorporation” value [5] was “significantly inhibit both the responses”.
With CC(O)(CS(=O)(=O)c1ccc(F)cc1)C(=O)Nc1ccc(C#N)c(C(F)(F)F)c1 (stereo not shown) [Casodex] the “Inhibition of EGF-induced BrdU incorporation” value [1] was “inhibit both DNA synthesis and motility”, the “Inhibition of EGF-induced BrdU incorporation” value [3] was “inhibits EGF-induced BrdU incorporation” and the “Inhibition of EGF-induced invasiveness” value [6] was “inhibited to a similar extent”. For the same molecule, the “Inhibition … (Trans-well)” value [4] was “similarly inhibit these EGF-elicited responses” and the “Inhibition of EGF-induced BrdU incorporation” value [5] was “significantly inhibit both the responses”.
For Ac-HPKPARIPHP-NH2 [Ss peptide], the “Inhibition of EGF-induced BrdU incorporation” value [1] was “does not interfere with the EGF-elicited responses”, the “Effect on EGF-induced EGFR/AR/Src complex assembly” value [2] was “only slightly affects” and the “Inhibition of EGF-induced BrdU incorporation” value [3] was “only slightly affects DNA synthesis”. For the same molecule, the “Inhibition of EGF-induced invasiveness” value [6] was “not by Ss peptide”, the “Inhibition … (Trans-well)” value [4] was “does not interfere with the EGF-elicited responses” and the “Inhibition of EGF-induced BrdU incorporation” value [5] was “slightly modifies DNA synthesis”.
